Target: T1, human SLC6A19 and TMEM27 (Homo sapiens, UniProt Q695T7)
T1 construct: expressed in transfected cells
T1 sequence (Q695T7 1-634): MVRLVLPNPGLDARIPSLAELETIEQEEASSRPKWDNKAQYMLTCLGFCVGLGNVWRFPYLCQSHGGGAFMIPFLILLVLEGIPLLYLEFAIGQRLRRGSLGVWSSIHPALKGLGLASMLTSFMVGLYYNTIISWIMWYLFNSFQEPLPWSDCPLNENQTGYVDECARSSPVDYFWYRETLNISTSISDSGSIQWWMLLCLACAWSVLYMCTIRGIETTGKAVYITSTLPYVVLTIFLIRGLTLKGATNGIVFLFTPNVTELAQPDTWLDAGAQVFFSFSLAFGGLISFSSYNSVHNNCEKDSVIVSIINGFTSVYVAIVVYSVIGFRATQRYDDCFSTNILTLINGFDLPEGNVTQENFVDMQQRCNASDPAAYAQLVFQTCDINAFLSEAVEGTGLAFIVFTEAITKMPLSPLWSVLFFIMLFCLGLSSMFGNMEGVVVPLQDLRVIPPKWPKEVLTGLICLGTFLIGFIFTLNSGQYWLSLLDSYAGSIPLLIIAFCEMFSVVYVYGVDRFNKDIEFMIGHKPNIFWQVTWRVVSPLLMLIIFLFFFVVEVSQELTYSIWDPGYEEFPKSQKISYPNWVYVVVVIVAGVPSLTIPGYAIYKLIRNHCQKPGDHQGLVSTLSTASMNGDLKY
T1 sequence (Q9HBJ8 15-222 partner): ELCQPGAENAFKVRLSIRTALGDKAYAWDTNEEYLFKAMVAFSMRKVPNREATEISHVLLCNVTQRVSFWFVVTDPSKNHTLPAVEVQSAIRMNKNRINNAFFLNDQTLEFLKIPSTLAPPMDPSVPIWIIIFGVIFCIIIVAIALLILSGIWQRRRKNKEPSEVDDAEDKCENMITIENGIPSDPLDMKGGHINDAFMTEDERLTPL
Assay: Radiolabelled (3H) leucine uptake in CHO cells with doxycycline-inducible expression of human SLC6A19 and TMEM27 (Example B-1)
Assay type: cell-based
Details: CHO cells with doxycycline-inducible expression of human SLC6A19 and TMEM27, read-out: SLC6A19_Radioligand Uptake Assay IC50
Description: The flasks were then incubated (humidified, 37° C. with 5% CO2) for 2 minutes. After incubation, 10 mL of pre-warmed cell culture media was added to each flask. The cell suspension was collected and centrifuged for 5 minutes at 200×g. The supernatant was aspirated and the pellet was resuspended in 5 mL pre-warmed cell culture media. The resuspended cells were counted using the Countess Cell Counting Chamber (Invitrogen) and the cell concentration of the suspension was readjusted to 1 million live cells/mL using pre-warmed cell culture media. […] Assay plates were then incubated (humidified, 37° C. with 5% CO2) for 18 hours. After incubation, the media was aspirated and the wells were washed 4 times with pre-warmed HBSS (Sigma-Aldrich, H8264-1L) using an Apricot S-Pipette S2 (Apricot Designs), such that 5 uL/well HBSS was remaining at the end of each wash. […] At this step, the final in-well DMSO concentration in the assay plate is 0.5%. All compounds were plated in a duplicate 8-point dilution series that consisted of 3-fold dilutions. The plates were incubated with compound (humidified, 37° C. with 5% CO2) for 1 hour. […] The plates were then incubated (humidified, 37° C. with 5% CO2) on a plate shaker at 200 rpm for 2 hours. After incubation, the plates were removed from the shaker and kept at room temperature for 15 minutes. Liquid scintillation analysis was performed using the MicroBeta2 Microplate Counter (Perkin Elmer). Activity (%) was derived by normalizing the average of positive control compound treated wells to 0% and the average of DMSO (negative control) wells to 100%. Collaborative Drug Discovery software was used for graphing data.

Which IC50 does the source give for `Cc1cc(COc2cc3[nH]c(CNC(=O)C45COC(C4)C5)cc3cc2Cl)on1` [Compound 298, N-((5-chloro-6-((3-methylisoxazol-5-yl)methoxy)-1H-indol-2-yl)methyl)-2-oxabicyclo[2.1.1]hexane-4-carboxamide] here?
Its IC50 is 921 nM.

For `Cc1cc(COc2cc3[nH]c(CNC(=O)C4(C)CC4)cc3cc2F)no1` [Compound 329, N-((5-fluoro-6-((5-methylisoxazol-3-yl)methoxy)-1H-indol-2-yl)methyl)-1-methylcyclopropane-1-carboxamide], which IC50 is on record?
Its IC50 is 167 nM.

For `Cc1cc(CCc2cc3[nH]c(CNC(=O)C4(C)CC4)cc3cc2F)no1` [Compound 593, N-((5-fluoro-6-(2-(5-methylisoxazol-3-yl)ethyl)-1H-indol-2-yl)methyl)-1-methylcyclopropane-1-carboxamide], which IC50 is on record?
The IC50 was 220 nM.

With `Cc1cc(COc2cc3[nH]c(CNC(=O)C45COCC4C5)cc3cc2Cl)on1` (stereo not drawn) [Compound 300, N-((5-chloro-6-((3-methylisoxazol-5-yl)methoxy)-1H-indol-2-yl)methyl)-3-oxabicyclo[3.1.0]hexane-1-carboxamide] as the molecule, how does the IC50 read?
The IC50 was 321 nM.

How did the IC50 turn out when `CC1(C(=O)NCc2cc3cc(F)c(CNc4ccon4)cc3[nH]2)CC1` [Compound 611, N-((5-fluoro-6-((isoxazol-3-ylamino)methyl)-1H-indol-2-yl)methyl)-1-methylcyclopropane-1-carboxamide] was run?
The IC50 was 842 nM.

With `COc1cc2cc(CNC(=O)C3(C)CC3)[nH]c2cc1CCn1nccn1` [Compound 591, N-((6-(2-(2H-1,2,3-triazol-2-yl)ethyl)-5-methoxy-1H-indol-2-yl)methyl)-1-methylcyclopropane-1-carboxamide] as the molecule, how does the IC50 read?
The IC50 was 184 nM.

How did the IC50 turn out when `Cc1cc(COc2cc3[nH]c(CNC(=O)[C@@H]4CCCN4C)cc3cc2Cl)on1` [Compound 577, (S)-N-((5-chloro-6-((3-methylisoxazol-5-yl)methoxy)-1H-indol-2-yl)methyl)-1-methylpyrrolidine-2-carboxamide] was run?
Its IC50 is 1440 nM.

For `CC1(C(=O)NCc2cc3cc(OC(F)(F)F)c(CCc4ccon4)cc3[nH]2)CC1` [Compound 510, N-((6-(2-(isoxazol-3-yl)ethyl)-5-(trifluoromethoxy)-1H-indol-2-yl)methyl)-1-methylcyclopropane-1-carboxamide], which IC50 is on record?
Its IC50 is 385 nM.

For `Cc1cc(COc2cc3[nH]c(CNC(=O)C4CCN(C)C4=O)cc3cc2Cl)on1` (racemic) [Compound 574, (R)-N-((5-chloro-6-((3-methylisoxazol-5-yl)methoxy)-1H-indol-2-yl)methyl)-1-methyl-2-oxopyrrolidine-3-carboxamide and (S)-N-((5-chloro-6-((3-methylisoxazol-5-yl)methoxy)-1H-indol-2-yl)methyl)-1-methyl-2-oxopyrrolidine-3-carboxamide], which IC50 is on record?
Its IC50 is 3600 nM.

For `Cc1cc(COc2cc3[nH]c(CNC(=O)[C@H]4C[C@@H](O)C4)cc3cc2Cl)on1` [Compound 253, (1S,3S)-N-((5-chloro-6-((3-methylisoxazol-5-yl)methoxy)-1H-indol-2-yl)methyl)-3-hydroxycyclobutane-1-carboxamide], which IC50 is on record?
The IC50 was 606 nM.

Which IC50 does the source give for `O=C(CCO)NCc1cc2cc(Cl)c(OCc3cscn3)cc2[nH]1` [Compound 309, N-((5-chloro-6-(thiazol-4-ylmethoxy)-1H-indol-2-yl)methyl)-3-hydroxypropanamide] here?
Its IC50 is 1750 nM.

For `CC(=O)NCc1cc2cc(Cl)c(OCc3ccon3)cc2[nH]1` [Compound 143, N-((5-chloro-6-(isoxazol-3-ylmethoxy)-1H-indol-2-yl)methyl)acetamide], which IC50 is on record?
Its IC50 is 182 nM.

`CC1(C(=O)NCc2cc3ccc(OCc4ccc5ccoc5c4)cc3[nH]2)CC1` [Compound 192, N-((6-(benzofuran-6-ylmethoxy)-1H-indol-2-yl)methyl)-1-methylcyclopropane-1-carboxamide] was tested. Which IC50 did it give?
The IC50 was 2510 nM.

Which IC50 does the source give for `O=C(NCc1cc2cc(Cl)c(CCc3cscn3)cc2[nH]1)N1CCCC1` [Compound 418, N-((5-chloro-6-(2-(thiazol-4-yl)ethyl)-1H-indol-2-yl)methyl)pyrrolidine-1-carboxamide] here?
Its IC50 is 163 nM.

For `O=C(NCc1cc2cc(C(F)(F)F)c(OCc3ccon3)cc2[nH]1)N1CCCC1` [Compound 476, N-((6-(isoxazol-3-ylmethoxy)-5-(trifluoromethyl)-1H-indol-2-yl)methyl)pyrrolidine-1-carboxamide], which IC50 is on record?
Its IC50 is 408 nM.

How did the IC50 turn out when `CC(F)C(=O)NCc1cc2cc(Cl)c(OCc3cscn3)cc2[nH]1` (single isomer, unassigned) [Compound 444, (R or S)-N-((5-chloro-6-(thiazol-4-ylmethoxy)-1H-indol-2-yl)methyl)-2-fluoropropanamide] was run?
The IC50 was 77.4 nM.

How did the IC50 turn out when `Cc1cc(COc2cc3[nH]c(CNC(=O)[C@@H](O)CF)cc3cc2Cl)on1` [Compound 247, (R)-N-((5-chloro-6-((3-methylisoxazol-5-yl)methoxy)-1H-indol-2-yl)methyl)-3-fluoro-2-hydroxypropanamide] was run?
The IC50 was 770 nM.

How did the IC50 turn out when `CC1(C(=O)NCc2cc3cc(Cl)c(OCc4ncsc4Cl)cc3[nH]2)CC1` [Compound 400, N-((5-chloro-6-((5-chlorothiazol-4-yl)methoxy)-1H-indol-2-yl)methyl)-1-methylcyclopropane-1-carboxamide] was run?
Its IC50 is 556 nM.

With `Cc1cc(COc2cc3[nH]c(CNC(=O)[C@H]4C[C@@H]4F)cc3cc2Cl)on1` [Compound 538, (1R,2S)-N-((5-chloro-6-((3-methylisoxazol-5-yl)methoxy)-1H-indol-2-yl)methyl)-2-fluorocyclopropane-1-carboxamide] as the molecule, how does the IC50 read?
Its IC50 is 59.4 nM.

How did the IC50 turn out when `O=C(NCc1cc2cc(Cl)c(OCc3cscn3)cc2[nH]1)C1(C(F)(F)F)CC1` [Compound 144, N-((5-chloro-6-(thiazol-4-ylmethoxy)-1H-indol-2-yl)methyl)-1-(trifluoromethyl)cyclopropane-1-carboxamide] was run?
Its IC50 is 119 nM.

How did the IC50 turn out when `CC1(C(=O)NCc2cc3cc(C4(F)CC4)c(OCc4ccon4)cc3[nH]2)CC1` [Compound 655, N-((5-(1-fluorocyclopropyl)-6-(isoxazol-3-ylmethoxy)-1H-indol-2-yl)methyl)-1-methylcyclopropane-1-carboxamide] was run?
Its IC50 is over 7300 nM.

With `CC1(C(=O)NCc2cc3cc(F)c(COc4ccon4)cc3[nH]2)CC1` [Compound 612, N-((5-fluoro-6-((isoxazol-3-yloxy)methyl)-1H-indol-2-yl)methyl)-1-methylcyclopropane-1-carboxamide] as the molecule, how does the IC50 read?
Its IC50 is 152 nM.

For `COc1ccc(COc2cc3[nH]c(CNC(=O)C4(C)CC4)cc3cc2Cl)nn1` [Compound 337, N-((5-chloro-6-((6-methoxypyridazin-3-yl)methoxy)-1H-indol-2-yl)methyl)-1-methylcyclopropane-1-carboxamide], which IC50 is on record?
The IC50 was 1190 nM.

With `CC1(C(=O)NCc2cc3cc(Cl)c(OCc4ccon4)c(F)c3[nH]2)CC1` [Compound 16, N-((5-chloro-7-fluoro-6-(isoxazol-3-ylmethoxy)-1H-indol-2-yl)methyl)-1-methylcyclopropane-1-carboxamide] as the molecule, how does the IC50 read?
The IC50 was 172 nM.

How did the IC50 turn out when `CO[C@@H](C)C(=O)NCc1cc2cc(Cl)c(OCc3cscn3)cc2[nH]1` [Compound 291, (S)-N-((5-chloro-6-(thiazol-4-ylmethoxy)-1H-indol-2-yl)methyl)-2-methoxypropanamide] was run?
Its IC50 is 197 nM.

Which IC50 does the source give for `CC1(C(=O)NCc2[nH]c3cc(OCc4cscn4)ccc3c2C(F)(F)F)CC1` [Compound 640, 1-methyl-N-((6-(thiazol-4-ylmethoxy)-3-(trifluoromethyl)-1H-indol-2-yl)methyl)cyclopropane-1-carboxamide] here?
Its IC50 is 666 nM.

For `CC1(C(=O)NCc2cc3cc(-c4ccon4)c(OCc4cscn4)cc3[nH]2)CC1` [Compound 659, N-((5-(isoxazol-3-yl)-6-(thiazol-4-ylmethoxy)-1H-indol-2-yl)methyl)-1-methylcyclopropane-1-carboxamide], which IC50 is on record?
The IC50 was 1970 nM.
